According to US12570696B2, “Tumor-specific polypeptide sequence and use thereof” (SHENZHEN GINO BIOTECHNOLOGY CO., LTD., priority 2019, dated 2026):
Where “and” joins values, the source holds several entries; their conditions need not be identical. Identical values can stand only once.

Experiments:
[1] = tested on: CD8+ T cells; test: ELISPOT verification of activation of CD8+ T cell immune response (IFN-gamma secretion); assay type: cell-based, human
Experimental: (§1) The peripheral blood mononuclear cells (PBMCs) were collected from the volunteers who were positive for the corresponding subtype of the polypeptide. For 2×10^7 PBMCs, mononuclear cells were separated by using the adherent method (adhered for 3 h), and CD8^+ T cells were isolated by using CD8 magnetic beads. The adherent mononuclear cells were induced to immature DC cells by using GM-CSF (1000 U/ml) and IL-4 (1000 U/ml). Then, the adherent cells were induced into polypeptide-specific mature DC cells by IFN-gamma (100 U/ml), LPS (10 ng/ml), and the respective polypeptides. The obtained polypeptide-specific mature DC cells were co-cultured with volunteers' CD8^+ T cells, and IL-21 was added. After 3 days, IL-2 and IL-7 were supplemented. Thereafter, IL-2 and IL-7 were supplemented on day 5 and day 7, and on day 10, the co-cultured cells were counted, and the subsequent ELISPOTs and LDH were detected.
The ELISPOT method is an enzyme-linked immunospot assay, which can detect the cytokines secreted by a single cell. In the assay, the culture plate was coated with specific monoclonal antibodies, and then the cells to be detected and antigenic stimulant were added for culture. Under the stimulation of the stimulant, the corresponding cytokines were secreted by the T cells, and the secreted cytokines were captured by the antibodies coated on the culture plate. After washing away the cells, the captured cytokines were bonded to […] secondary antibodies to form spots. […]
With reference to the specification in the ELISPOT kit, the cells cultured in Example 4, T2 cells loaded with testing polypeptide ([…], SEQ ID NO: 2), and T2 cells loaded with irrelevant polypeptide (referring to a polypeptide not stimulating T cells to secrete IFN-gamma interferon and having a specific sequence of […], the irrelevant polypeptide used in the following examples also refers to this sequence) were added respectively to the ELISPOT plate for cultivation, and ELISPOTs were detected after 20 hours (see the specification of the ELISPOT kit). […]

[2] = tested on: HCC827 subcutaneous tumor model; test: DC polypeptide vaccine in mouse subcutaneous transplanted tumor model; assay type: in vivo, NOD/SCID mice; settings: polypeptide-loaded DC cells, intradermal, 2 injections; compared with wild-type and blank polypeptide-loaded DC groups; FIG. 5
Text: (§2) This model was used to verify the tumor control effect of the polypeptide pharmaceutical combination, the antigen-presenting cell, and the vaccine proposed by the present disclosure. • 1. The encoding gene of each polypeptide was introduced by lentivirus transfection, and the recombinant lentivirus expressing the above-mentioned mutant polypeptide or a variant thereof was constructed and packaged. • 2. Construction of human-derived lung cancer cell line expressing the polypeptides
The human lung cancer cell line HCC827 was purchased from ATCC (No: CRL-2868), and its HLA subtype was HLA-A*1101 positive. Cells were cultured in DMEM medium containing 10% fetal bovine serum, 100 U/mL penicillin and streptomycin, in an incubator at 37° C., 5% CO2. The packaged lentivirus was transfected into the HCC827 cell line, and antibiotic puromycin was used to continuously screen the surviving HCC827 cell line, and finally the HCC827 cell line expressing the polypeptides was established. • 3. NOD SCID mouse human immune reconstitution […]
(§3) The established human lung cancer cell line was cultured in DMEM medium containing 10% fetal bovine serum, 100 U/mL penicillin and streptomycin, in an incubator at 37° C., 5% CO2. […] The subcutaneous tumor model NOD/SCID mice with immune reconstitution for 4 weeks were treated with DC vaccine, and the tumor volumes were recorded every 3 to 4 days. […]

[3] = tested on: HCC827 subcutaneous tumor model; test: Polypeptide vaccine in mouse subcutaneous transplanted tumor model; assay type: in vivo, NOD/SCID mice; settings: polypeptide + Freund's adjuvant, 4 immunizations, compared with wild-type polypeptide group and adjuvant group, FIG. 4
Text: as §2
(§4) The human lung cancer cell line HCC827 was purchased from ATCC (No: CRL-2868), and its HLA subtype was HLA-A*1101 positive. Cells were cultured in DMEM medium containing 10% fetal bovine serum, 100 U/mL penicillin and streptomycin, in an incubator at 37° C., 5% CO2. […]
as §3
The first immunization dosage of the polypeptide of each group was […] per mouse. […] After the injection, the vital signs of the mice were observed, and the vertical and horizontal sizes of the tumor were measured with a vernier caliper every 3 to 4 days. […]

[4] = tested on: HCC827 subcutaneous tumor model; test: Polypeptide-specific DC-CTL vaccine in mouse subcutaneous transplanted tumor model; assay type: in vivo, NOD/SCID mice; settings: polypeptide-activated CTLs reinfused through the tail vein; compared with blank polypeptide and wild-type polypeptide groups; FIG. 6
Text: as §2, §4
The established human lung cancer cell line was cultured in DMEM medium containing 10% fetal bovine serum, 100 U/mL penicillin and streptomycin, in an incubator at 37° C., 5% CO2. […] The subcutaneous tumor model NOD/SCID mice with immune reconstitution for 4 weeks were treated with DC vaccine, and the tumor volumes were recorded every 3 to 4 days.
The PBLs collected in Example 9 were sorted by magnetic beads to obtain CD8^+ T cells. […] The culture medium was incubated with 500 IU/ml IL-2 and 50 ng/ml IL-7, in an incubator at 37° C. with 5% CO2, and the cells were counted after 1 week of culture. […]

[5] = biological target: T1, MHC I molecules on the surfaces of T2 cells (HLA-A*11:01) (Homo sapiens, UniProt P04439, A114D/D185E/E176A/F33Y/L180Q/S129P/T187R); test: Verification of affinity of polypeptide with T2 cells (flow cytometry, fluorescence index); assay type: cell-based
T1 construct: endogenous in cells; host or cells: T2 cells
Text: T2 cells are a necessary antigen polypeptide transporter-deficient cell line in the endogenous antigen presentation pathway, and can be used to study the strength of the mutual recognition with MHC molecules in the antigen presentation process.
In order to verify the affinity of exogenous polypeptides with T2 cells, a polypeptide that had been confirmed to have strong affinity with T2 cells was used as positive control, and T2 cells without adding polypeptides were used as background control. […] Based on this, the affinity of the polypeptide with T2 cells is determined. The higher the FI value, the stronger the affinity of the polypeptide with T2 cells, which is conducive to the subsequent recognition of specific CD8^+ T cells.
The synthesized polypeptides were added to 2*10^5 T2 cells, and human β2 micro-globulin (with a final concentration of 3 μg/ml) was added and cultivated in 24-well plate. The plate was cultured in an incubator (37° C., 5% CO2) overnight. […] (SEQ ID NO: 9), which is a viral peptide and is also a known polypeptide with strong affinity with T2 cells, was used as a positive control, duplicate wells for each experiment, and the average value was calculated.
[…] for 5 minutes to collect the cells. […] The mean fluorescence intensity was then detected and analyzed by a flow cytometer (BD FACSJazz™) and its software, see FIG. 2.

[6] = tested on: T2 cells; test: LDH release assay of polypeptide-specific killing activity of CD8+ T cells; assay type: cell-based; settings: triplicate wells
Experimental: as §1
LDH is an enzyme present in the cytoplasm. LDH will be released into the culture medium when the cell membrane is damaged. Since the released LDH is stable, the measured amount of LDH in the medium can be used as an indicator to measure the number of dead and damaged cells.
The cells cultured in Example 4 were co-cultured with the T2 cells loaded with the testing polypeptide or the irrelevant polypeptide or no polypeptide. In the assay, maximum release wells, volume correction wells, medium control wells, spontaneous release wells, different effect-target ratios (the ratio of the number of T cells to the number of T2 cells) were set, triplicated wells for each group. After 4 hours, 50 μl of the co-cultured cell supernatant was taken and added to 50 μl of LDH substrate mixture, allowing the cell supernatant to catalyze the LDH substrate reaction, finally reading at the wavelength of 490 nm and the reference wavelength of 680 nm. Based on the control wells, the killing activity of […] killing T2 cells was calculated. The greater the value shown in Table 4, the stronger the killing effect.

RHGGWTTK (Mutant polypeptide) was tested, and the “Number of spots produced by using irrelevant polypeptide as stimulant” value ([1]; IFN-gamma ELISPOT, T2 cells loaded with irrelevant polypeptide LSYRNKPSI, 20 hours) was 11, the “Number of spots produced by using testing polypeptide as stimulant” value ([1]; IFN-gamma ELISPOT, T2 cells loaded with testing polypeptide, 20 hours) was 104 and the “Multiple (testing/irrelevant)” value ([1]; ratio of spot numbers, >=2 regarded as having immunogenicity) was 9. For the same sequence, the “Mouse tumor growth (tumor volume), polypeptide-loaded DC vaccine” value [2] was “can significantly slow down the mouse tumor growth”, the “Mouse tumor growth (tumor volume), polypeptide vaccine” value [3] was “can significantly slow down the mouse tumor growth” and the “Mouse tumor growth (tumor volume), DC-CTL vaccine” value [4] was “can significantly slow down the mouse tumor growth”. The “Conclusion (T2 cell affinity)” value ([5]; compared with the positive control) was “High affinity”, the FI ([5]; fluorescence index, T2 cells, overnight, FITC anti-HLA-A*11:01 antibody, flow cytometry) was 2.12 and the “Killing activity, T + T2 (loaded with no polypeptide)” value ([6]; E:T = 1:1, 4 hours) was 0.322 and 0.279 and 0.298. For the same sequence, the “Killing activity, T + T2 + irrelevant polypeptide” value ([6]; E:T = 1:1, 4 hours) was 0.278 and 0.293 and 0.308, the “Killing activity, T + T2 + testing polypeptide” value ([6]; E:T = 1:1, 4 hours) was 0.324 and 0.351 and the “Killing activity, T + T2 (loaded with no polypeptide)” value ([6]; E:T = 10:1, 4 hours) was 0.413 and 0.352 and 0.364. The “Killing activity, T + T2 + irrelevant polypeptide” value ([6]; E:T = 10:1, 4 hours) was 0.436 and 0.371 and 0.407 and the “Killing activity, T + T2 + testing polypeptide” value ([6]; E:T = 10:1, 4 hours) was 0.406 and 0.397 and 0.414.
